Measured values taken from ChEMBL document CHEMBL1201862, “PubChem BioAssay data set” (2004).
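Values below derive from 48-hour exposures of cells grown in 96-well plates, with endpoints linearly interpolated between the two concentrations bracketing the appropriate inhibition level. GI50 marks 50% less growth.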 Calls of active or inactive are those of the source. Rule as the data show it: active = GI50 up to about 1.1 µM and inactive = higher.

What was measured:
Assay in all cases: inhibition of tumour cell growth, NCI panel, 48 h
[1] = system: EKVX
[2] = system: OVCAR-3
[3] = system: NCI-H23
[4] = system: RXF 393
[5] = system: TK-10
[6] = system: IGROV-1
[7] = system: Malme-3M
[8] = system: LOX IMVI
[9] = system: DMS-273
[10] = system: HT-29
[11] = system: NCI-H226
[12] = system: HCT-116
[13] = system: UO-31
[14] = system: SF-295
[15] = system: OVCAR-5
[16] = system: HOP-92
[17] = system: A498
[18] = system: OVCAR-8
[19] = system: U-251
[20] = system: M19-MEL
[21] = system: HL-60
[22] = system: OVCAR-4
[23] = system: SK-MEL-28
[24] = system: HOP-62
[25] = system: SW-620
[26] = system: SF-268
[27] = system: HCT-15
[28] = system: KM12
[29] = system: UACC-257
[30] = system: UACC-62
[31] = system: M14
[32] = system: SNB-19
[33] = system: ACHN
[34] = system: MOLT-4
[35] = system: HOP-18
[36] = system: RPMI-8226
[37] = system: LXFL 529
[38] = system: K562
[39] = system: SN12C
[40] = system: NCI-H460
[41] = system: XF498
[42] = system: HCC 2998
[43] = system: SF-539
[44] = system: SK-MEL-2
[45] = system: DMS-114
[46] = system: SK-MEL-5
[47] = system: CAKI-1
[48] = system: A549
[49] = system: SNB-75
[50] = system: KM-20L2
[51] = system: SNB-78
[52] = system: 786-0
[53] = system: DLD-1
[54] = system: RXF 631
[55] = system: MDA-MB-231
[56] = system: CCRF-CEM
[57] = system: PC-3
[58] = system: SR
[59] = system: T47D
[60] = system: NCI-H522
[61] = system: MCF7
[62] = system: COLO 205
[63] = system: DU-145
[64] = system: MDA-N
[65] = system: NCI/ADR-RES
[66] = system: Hs-578T
[67] = system: MDA-MB-435
[68] = system: SK-OV-3
[69] = system: BT-549

SMILES: CCc1ccccc1NC(=O)C(=O)C1C(=O)N(c2ccccc2)N=C1N (stereo not drawn)
- GI50 [1]: > 100 µM (inactive)
- GI50 [2]: > 100 µM (inactive)
- GI50 [3]: > 100 µM (inactive)
- GI50 [4]: > 100 µM (inactive)
- GI50 [5]: > 100 µM (inactive)
- GI50 [6]: > 100 µM (inactive)
- GI50 [7]: > 100 µM (inactive)
- GI50 [8]: > 100 µM (inactive)
- GI50 [9]: > 100 µM (inactive)
- GI50 [10]: > 100 µM (inactive)
- GI50 [11]: > 100 µM (inactive)
- GI50 [12]: > 100 µM (inactive)
- GI50 [13]: > 100 µM (inactive)
- GI50 [14]: > 100 µM (inactive)
- GI50 [15]: > 100 µM (inactive)
- GI50 [16]: > 100 µM (inactive)
- GI50 [17]: > 100 µM (inactive)
- GI50 [18]: > 100 µM (inactive)
- GI50 [19]: > 100 µM (inactive)
- GI50 [20]: > 100 µM (inactive)
- GI50 [21]: 72.4 µM (inactive)
- GI50 [22]: > 100 µM (inactive)
- GI50 [23]: > 100 µM (inactive)
- GI50 [24]: > 100 µM (inactive)
- GI50 [25]: > 100 µM (inactive)
- GI50 [26]: > 100 µM (inactive)
- GI50 [27]: > 100 µM
- GI50 [28]: > 100 µM (inactive)
- GI50 [29]: > 100 µM (inactive)
- GI50 [30]: > 100 µM (inactive)
- GI50 [31]: > 100 µM (inactive)
- GI50 [32]: > 100 µM (inactive)
- GI50 [33]: > 100 µM (inactive)
- GI50 [34]: 8.3 µM (inactive)
- GI50 [35]: > 100 µM (inactive)
- GI50 [36]: > 100 µM (inactive)
- GI50 [37]: > 100 µM (inactive)
- GI50 [38]: > 100 µM (inactive)
- GI50 [39]: > 100 µM (inactive)
- GI50 [40]: > 100 µM (inactive)
- GI50 [41]: > 100 µM (inactive)
- GI50 [42]: > 100 µM (inactive)
- GI50 [43]: > 100 µM (inactive)
- GI50 [44]: > 100 µM (inactive)
- GI50 [45]: > 100 µM (inactive)
- GI50 [46]: > 100 µM (inactive)
- GI50 [47]: > 100 µM (inactive)
- GI50 [48]: > 100 µM (inactive)
- GI50 [49]: > 100 µM (inactive)
- GI50 [50]: > 100 µM (inactive)
- GI50 [51]: > 100 µM (inactive)
- GI50 [52]: > 100 µM (inactive)
- GI50 [53]: > 100 µM (inactive)
- GI50 [54]: > 100 µM (inactive)

SMILES: Cc1cc2c(c3oc(C(O)(CO)C4CO4)cc(=O)c13)C(=O)c1c(O)cccc1C2=O (stereo not drawn)
- GI50 [1]: 0.0023 µM (active)
- GI50 [2]: 0.0029 µM (active)
- GI50 [4]: 0.00125 µM (active)
- GI50 [5]: 0.00244 µM (active)
- GI50 [6]: 0.000266 µM (active)
- GI50 [7]: 0.00169 µM (active)
- GI50 [55]: 0.00213 µM (active)
- GI50 [8]: 0.000356 µM (active)
- GI50 [9]: < 0.01 µM (active)
- GI50 [10]: 0.00104 µM (active)
- GI50 [56]: 4.14e-05 µM (active)
- GI50 [11]: 0.00237 µM (active)
- GI50 [12]: 0.000363 µM (active)
- GI50 [13]: 0.000154 µM (active)
- GI50 [14]: 0.00139 µM (active)
- GI50 [15]: 0.00229 µM (active)
- GI50 [16]: 0.00013 µM (active)
- GI50 [17]: 0.00212 µM (active)
- GI50 [18]: 0.000569 µM (active)
- GI50 [57]: 0.000841 µM (active)
- GI50 [19]: 0.000826 µM (active)
- GI50 [20]: < 0.01 µM (active)
- GI50 [21]: 0.000377 µM (active)
- GI50 [22]: 0.00158 µM (active)
- GI50 [23]: 0.00219 µM (active)
- GI50 [24]: 0.00147 µM (active)
- GI50 [58]: 0.000213 µM (active)
- GI50 [59]: 0.00163 µM (active)
- GI50 [60]: 0.0012 µM (active)
- GI50 [25]: 0.000377 µM (active)
- GI50 [26]: 0.00156 µM (active)
- GI50 [61]: 0.000435 µM (active)
- GI50 [27]: 0.000887 µM
- GI50 [28]: 0.00104 µM (active)
- GI50 [62]: 0.00163 µM (active)
- GI50 [29]: 0.00279 µM (active)
- GI50 [30]: 0.00119 µM (active)
- GI50 [31]: 0.00168 µM (active)
- GI50 [32]: 0.00119 µM (active)
- GI50 [33]: 0.000278 µM (active)
- GI50 [34]: 0.000145 µM (active)
- GI50 [35]: < 0.01 µM (active)
- GI50 [36]: 0.000313 µM (active)
- GI50 [37]: < 0.01 µM (active)
- GI50 [63]: 0.000552 µM (active)
- GI50 [64]: 0.00131 µM (active)
- GI50 [38]: 0.000982 µM (active)
- GI50 [39]: 0.000674 µM (active)
- GI50 [40]: 0.000372 µM (active)
- GI50 [41]: < 0.01 µM (active)
- GI50 [42]: 0.00131 µM (active)
- GI50 [43]: 0.000662 µM (active)
- GI50 [44]: 0.00151 µM (active)
- GI50 [45]: < 0.01 µM (active)
- GI50 [65]: 0.00129 µM (active)
- GI50 [66]: 0.00436 µM (active)
- GI50 [46]: 0.002 µM (active)
- GI50 [47]: 0.000463 µM (active)
- GI50 [67]: 0.00121 µM (active)
- GI50 [48]: 0.00149 µM (active)
- GI50 [49]: 0.00122 µM (active)
- GI50 [50]: < 0.01 µM (active)
- GI50 [51]: 0.031 µM (active)
- GI50 [52]: 0.000439 µM (active)
- GI50 [68]: 0.00188 µM (active)
- GI50 [53]: < 0.01 µM (active)
- GI50 [69]: 0.00296 µM (active)
- GI50 [54]: < 0.01 µM (active)

SMILES: COc1ccccc1-n1c(NN)nc2ccc(Br)cc2c1=O
- GI50 [1]: 27.9 µM (inactive)
- GI50 [2]: 51.2 µM (inactive)
- GI50 [3]: 28.1 µM (inactive)
- GI50 [4]: 30.4 µM (inactive)
- GI50 [5]: 28.4 µM (inactive)
- GI50 [6]: 38.2 µM (inactive)
- GI50 [7]: 39.4 µM (inactive)
- GI50 [8]: 27.9 µM (inactive)
- GI50 [9]: 35.1 µM (inactive)
- GI50 [10]: 38.2 µM (inactive)
- GI50 [56]: 23.7 µM (inactive)
- GI50 [11]: 31 µM (inactive)
- GI50 [13]: 35.1 µM (inactive)
- GI50 [14]: 34.5 µM (inactive)
- GI50 [15]: 18.2 µM (inactive)
- GI50 [18]: 34 µM (inactive)
- GI50 [19]: 35.4 µM (inactive)
- GI50 [20]: 42.5 µM (inactive)
- GI50 [21]: 21.3 µM (inactive)
- GI50 [22]: > 100 µM (inactive)
- GI50 [23]: 40.3 µM (inactive)
- GI50 [24]: 28.8 µM (inactive)
- GI50 [58]: 24.9 µM (inactive)
- GI50 [60]: 16.9 µM (inactive)
- GI50 [25]: 53 µM (inactive)
- GI50 [26]: 32.4 µM (inactive)
- GI50 [27]: 35.6 µM
- GI50 [28]: 38.6 µM (inactive)
- GI50 [62]: 45.9 µM (inactive)
- GI50 [29]: 24.4 µM (inactive)
- GI50 [30]: 36.6 µM (inactive)
- GI50 [31]: 40.6 µM (inactive)
- GI50 [32]: 37 µM (inactive)
- GI50 [33]: 36.5 µM (inactive)
- GI50 [34]: 26.2 µM (inactive)
- GI50 [35]: 5.18 µM (inactive)
- GI50 [36]: 41.2 µM (inactive)
- GI50 [37]: 24.3 µM (inactive)
- GI50 [38]: 35.6 µM (inactive)
- GI50 [39]: 57.9 µM (inactive)
- GI50 [40]: 42.8 µM (inactive)
- GI50 [41]: 28.5 µM (inactive)
- GI50 [42]: 41.7 µM (inactive)
- GI50 [43]: 27.9 µM (inactive)
- GI50 [44]: 44.4 µM (inactive)
- GI50 [45]: 33.6 µM (inactive)
- GI50 [46]: 19.3 µM (inactive)
- GI50 [47]: 48.1 µM (inactive)
- GI50 [48]: 45.4 µM (inactive)
- GI50 [49]: 34.1 µM (inactive)
- GI50 [50]: 39.9 µM (inactive)
- GI50 [51]: 47.6 µM (inactive)
- GI50 [52]: 36.9 µM (inactive)
- GI50 [68]: 26.5 µM (inactive)
- GI50 [53]: 34.8 µM (inactive)
- GI50 [54]: 45.3 µM (inactive)
